As usually defined, the IC50 is the concentration that gives 50% inhibition. A word on the AUC(0-inf): it is the area under the concentration-time curve extrapolated to infinity. Low values mean low exposure, high ones high exposure. As a reminder, the Cmax is the highest concentration seen after dosing. In general, clearance refers to the rate of elimination divided by the concentration. For orientation: half-life means the time in which the quantity being followed falls by half. Lower therefore signals fast loss.

Each structure is given as a SMILES string. Like-named read-outs stand apart in the source and are kept apart here. Some results are limits rather than exact numbers.

The test system of one series is HT29 cells. The series is described as follows: Inhibitory activity on HT29 cells (MTT). Type of series: cell-based, human. The following applies: for IC50: Homo sapiens, read-out: HT29 IC50. How it is done:
(§1) MDA-MB-468 cells (purchased from ATCC) were cultured in L-15 culture medium (purchased from Sigma-Aldrich), NCI-N87 cells (purchased from ATCC) were cultured in RPMI-1640 culture medium (purchased from Gibco), and HT29 cells (purchased from ATCC) were cultured in McCoy's 5A culture medium (purchased from Gibco), each of which was supplemented with 10% fetal bovine serum and 1% penicillin-streptomycin solution, and placed in a 5% CO2 incubator at 37°C. The cells were seeded in 96-well plates at 3000 cells per well and cultured overnight. Different concentrations of drugs were respectively added, and the cells were placed in a normal incubator (21% O2, 5% CO2, and 74% N2) and cultured for 72 h. 100 µL of culture medium was removed. 10 µL of MTT solution (5 mg/mL) was added. Then the cells were cultured in the incubator for 4 hours. 50 µL of triple combination solution (10% SDS, 5% isobutanol, and 0.012 mol/L HCl) was added. The cells were placed in the incubator overnight. OD values were measured at 540 nm wavelength, and median inhibition concentration IC50 of the drug on tumor cell growth was calculated (n=3).

The test system of the next series is NCI-N87 cells. The series is described as follows: Inhibitory activity on NCI-N87 cells (MTT). The following applies: for IC50: Homo sapiens, read-out: NCI-N87 IC50. Type of series: cell-based, human. The method, then:
as §1

The nature of series [1]: Pharmacokinetic test - rats. Set-up: species or system SD rats. The following applies: in vivo, 3 mg/kg, Rat PK, IV, 3 mpk, single injection, plasma; for Vd: read-out: Vz. How it is done: Experimental objective: To evaluate the pharmacokinetic characteristics of the compound of the present application in rats.
SD rats (Beijing Vital River Laboratory Animal Technology Co., Ltd.) were randomly divided, 6 rats/group, half male and half female, and were injected once with a sample (10% DMSO-90% (20% 2-hydroxypropyl-β-cyclodextrin-physiological saline), diluted according to the dose). Plasma samples were respectively taken before administration, and at 5 min, 30 min, 1 h, 2 h, 4 h, 6 h, 8 h, 10 h, and 24 h after administration. The sample concentration in plasma was determined by LC-MS method, and pharmacokinetic parameters were calculated (see Table 4). Table 4 Pharmacokinetic characteristics of the compound of the present application in SD rats

Series [2] in a line: Pharmacokinetic test - mice. Format: in vivo, Balb/c mice. Conditions: mouse, 3 mg/kg, Mice PK, IV, 3 mpk, single injection, plasma. The method, then:
Experimental objective: To evaluate the pharmacokinetic characteristics of the compound of the present application in mice.
Balb/c mice (purchased from Beijing Vital River) were randomly divided, 12 mice/group, half male and half female, and were injected once with a sample (10% DMSO-90% (20% 2-hydroxypropyl-β-cyclodextrin-physiological saline), diluted according to the dose). Cross samples of plasma were respectively taken before administration, and at 5 min, 30 min, 1 h, 2 h, 4 h, 6 h, 8 h, 10 h, and 24 h after administration. The sample concentration in plasma was determined by LC-MS method, and pharmacokinetic parameters were calculated (see Table 3). Table 3 Pharmacokinetic characteristics of the compound of the present application in mice

The next series concerns MDA-MB-468 cells. The series is described as follows: Inhibitory activity on MDA-MB-468 cells (MTT). Type of series: cell-based. The following applies: for IC50: Homo sapiens, read-out: MDA-MB-468 IC50. How it is done: as §1
The format of series [3] is in vivo. Conditions: SD rats, intravenous administration once a day for 7 consecutive days; result in words. The text has this:
The possible toxic reactions and severity thereof of the drug on SD rats were observed after continuous intravenous administration for 7 days. The toxicity of the compound in rodents was preliminarily evaluated. SD rats (Beijing Vital River Laboratory Animal Technology Co., Ltd.) were randomly divided, 6 rats/group, half male and half female, and injected with samples (preparation: 10% DMSO-90% (20% 2-hydroxypropyl-β-cyclodextrin-physiological saline), diluted according to the dose) once a day for 7 consecutive days. Weight and food intake were monitored every two days, and the status of the animals was observed. Blood samples were taken 24 h after the last dose for hematology, blood biochemistry and coagulation indexes.

For the next series, the system named is HCT116 cells. The series is described as follows: HCT-116 cell inhibitory activity test (MTT). Type of series: cell-based. The following applies: Homo sapiens, read-out: IC50 Activity. The method, then:
HCT116 cells (purchased from ATCC) were cultured in a 5% CO2 incubator at 37 °C using DMEM culture medium (purchased from Gibco) supplemented with 10% fetal bovine serum and 1% penicillin-streptomycin solution. The cells were seeded in 96-well plates at 3000 cells per well and cultured overnight. Different concentrations of drugs were respectively added, and the cells were placed in a normal incubator (21 % O2, 5% CO2, and 74% N2) and cultured for 72 h. 100 µL of culture medium was removed. 10 µL of MTT solution (5 mg/mL) was added. Then the cells were cultured in the incubator for 4 hours. 50 µL of triple combination solution (10% SDS, 5% isobutanol, and 0.012 mol/L HCl) was added. The cells were placed in the incubator overnight. OD values were measured at 540 nm wavelength, and median inhibition concentration IC50 of the drug on tumor cell growth was calculated (n=3). Compounds with activity designated as "A" provide IC50≤10nM. Compounds with activity designated as "B" provide IC50 of 10 nM to 100 nM. Compounds with activity designated as "C" provide IC50 of 100 nM to 1000 nM. Compounds with activity designated as "D" provide IC50 of 1000 nM to 10000 nM. Titer (nM); Efficacy (IC50).

With `[2H]C1([2H])OC(=O)[C@](O)(CC)c2cc3n(c(=O)c21)Cc1c-3nc2cc(F)c(C)c3c2c1[C@@H](N)CC3` [Compound A-11], the “HT29 Inh.max” value in the series on HT29 cells (HT29 cells, 72 h, MTT) is given as over 90%. Moreover, the IC50 was under 10 nM in the series on HT29 cells (HT-29, HT29 cells, 72 h, MTT, n=3); under 10 nM with NCI-N87 cells (NCI-N87 cells, 72 h, MTT, n=3); under 10 nM in the series on MDA-MB-468 cells (MDA-MB-468 cells, 72 h, MTT, n=3); under 10 nM in the series with HCT116 cells (HCT-116, HCT116 cells, 72 h, MTT, n=3). Besides, the “NCI-N87 Inh.max” value in the series with NCI-N87 cells (NCI-N87 cells, 72 h, MTT) is given as over 70%. Besides, the AUC(0-inf) in series [1] is 135 ng·h/mL; in series [2], 321 ng·h/mL. The Cmax in series [1] came out at 215 ng/mL; in series [2], 902 ng/mL. For the same compound, the clearance was 381 mL/min/kg in series [1] and 156 mL/min/kg in series [2]. The results for the half-life in series [1] and in series [2] were 0.91 h and 1.19 h, respectively. The Vd was found to be 30.1 L/kg in series [1] and 16 L/kg in series [2] (read-out: Vz). In addition, the “MDA-MB-468 Inh.max” value in the series on MDA-MB-468 cells (MDA-MB-468 cells, 72 h, MTT) is given as over 80%. The safety result in series [3] is recorded as “better safety”.
Turning to `[2H]C1([2H])OC(=O)[C@](O)(CC)c2cc3n(c(=O)c21)Cc1c-3nc2ccc(O)cc2c1CC` [Compound A-9], the “HT29 Inh.max” value with HT29 cells (HT29 cells, 72 h, MTT) is listed as over 90%. The IC50 with HT29 cells (HT-29, 72 h) is under 10 nM. In the series with NCI-N87 cells (NCI-N87, 72 h), the IC50 was under 10 nM. Also, the “NCI-N87 Inh.max” value with NCI-N87 cells (NCI-N87 cells, 72 h, MTT) is recorded as over 80%. In series [1], this compound had an AUC(0-inf) of 99.5 ng·h/mL, a Cmax of 288 ng/mL, a clearance of 167 mL/min/kg and a half-life of 1.35 h. Besides, in series [1], the Vd was 19.5 L/kg. Also, in the series on MDA-MB-468 cells (MDA-MB-468, 72 h), the IC50 was under 10 nM. In addition, the “MDA-MB-468 Inh.max” value in the series on MDA-MB-468 cells (MDA-MB-468 cells, 72 h, MTT) is listed as over 80%. For the same compound, the safety entry in series [3] is on record as “better safety”. The IC50 in the series with HCT116 cells (HCT-116, 72 h) is under 10 nM.

These data come from EP4534539A1, “DIDEUTERATED CAMPTOTHECIN DERIVATIVE AND PREPARATION METHOD THEREFOR” (priority 2022, dated 2023).
